According to publication PMC12525728, “Safety, Pharmacokinetics, Translational and Molecular Mechanistic Insights on the Prostate Cancer Recurrence Suppressor Pseurotin A” (Molecules, 2025):

Test system: Swiss albino mice
Test: Hematological and biochemical evaluation after 90-day daily oral dosing
Format: in vivo
Conditions: for HCT / HGB / MCHC / MCV / PLT / RBC-H / WBC-H: mean ± SD; for ALP, plasma / ALT, plasma / AST, plasma / BUN, plasma / CREAT (creatinine), plasma / GLU (glucose), plasma: mean ± SEM
Procedure: For the 90-day daily oral dosing sub-chronic toxicity study, twenty male and twenty female healthy 8-week-old Swiss albino mice were randomly selected and randomized to […] (n = 5/sex/group). Mice received free access to purified drinking water and high-fat diet (HFD) pelleted rodent chow (11.4% total fat, no. 7004, Envigo/Teklad, Madison, WI, USA) until the day before sacrifice, at which time they were fasted for 8 h and allowed only free access to drinking water. Daily doses of PsA (10, 40, 80 mg/kg body weight) were administered to the mice formulated in <5% DMSO (Mediatech Inc., Manassas, VA, USA) and <0.2% Tween 80 (Croda Inc., Princeton, NJ, USA) at a volume not exceeding 1% of body weight by metal oral gavage (2 mm diameter with stainless steel bite protector, 18-gauge, 3.81 cm long). […] The mice were observed weekly until the completion of the study. The body weights of the mice were measured in grams using a Scout^TM Pro (Ohaus Corp., Pine Brook, NJ, USA) on day 0, 4, 8, 11, 14, 21, 28, 35, 42, 49, 56, 63, 70, 77, 83, and 90 after initial treatment. On day 90, all mice were anesthetized using isoflurane (USP-vaporizer method, Matrix VIP-3000, Covetrus, Dublin, OH, USA, exposure of animals in an anesthesia chamber at 3% isoflurane vaporization rate. Exposure time 2 min). Mice were then euthanized by cervical dislocation according to the 2020 AVMA Guidelines on Euthanasia and dissected. Mice organs (brain, liver, kidney, heart, lungs, spleen) were excised and weighed for histopathological examination. The organs were stored in 10% neutral buffered formalin (Avantor Science Central, Allentown, PA, USA) for 24 h and then transferred to 70% ethanol (AAPER ALCOHOL, Shelbyville, KY, USA). This study was performed following the OECD guideline 408 for the testing of chemicals.
On the day of sacrifice, mice were decapitated, and the blood was quickly collected into a green-topped Lithium Heparin 400 µL blood collection tube (BD Microtainer REF# 365965) as well as a purple-topped K2 EDTA (K2E) 500 µL blood collection tube (BD Microtainer, Cat# 365974) to ensure all blood samples were collected free of clots. The Li Heparin samples were immediately centrifuged at 13,000× g for 10 min, and the plasma was transferred to 1.5 mL Eppendorf tubes free of Li heparin for biochemical analysis. Plasma samples were analyzed for AST, ALT, ALP, glucose, BUN, and creatinine levels using the Beckman AU680 clinical chemistry analyzer system (Beckman Coulter, Atlanta, GA, USA). The ETDA samples were analyzed for hematological parameters, and WBC, RBC, Hgb, Hct, MCV, MCHC, and PLT were determined using the Siemens Advia 120 hematology analyzer (Siemens Healthcare Diagnostics Inc., Tarrytown, NY, USA). All blood samples were analyzed at the LSU School of Veterinary Medicine Clinical Pathology Laboratory at Baton Rouge, Louisiana.
Results for the hematological and biochemical parameters were analyzed separately by One-way Analysis of Variance (ANOVA), followed by multiple comparisons with Dunnett’s test. All statistical analyses were performed using GraphPad Prism version 8 software (San Diego, CA, USA). Data in this study were expressed as a mean ± SD (standard deviation) and mean ± SEM (standard error of mean). A probability value of <0.05 was considered statistically significant (* p < 0.05; ** p < 0.01; and *** p < 0.001).

[1] = female, 10mg/kg daily oral 90 days
[2] = female, 40mg/kg daily oral 90 days
[3] = female, 80mg/kg daily oral 90 days
[4] = male and female treatment groups, 90 days
[5] = male, 10mg/kg daily oral 90 days
[6] = male, 40mg/kg daily oral 90 days
[7] = male, 80mg/kg daily oral 90 days

CC/C=C\[C@H](O)[C@H](O)C1=C(C)C(=O)[C@]2(O1)C(=O)N[C@@](OC)(C(=O)c1ccccc1)[C@@H]2O [PsA, pseurotin A]
AST level versus control (all male dosing groups, 90 days): significantly lower | AST level versus control (female treatment groups, 90 days): significant reduction | HCT [1]: 48.5 ± 6.0% | HGB [1]: 12.5 ± 0.3 g/dL | MCHC [1]: 26.2 ± 3.0 g/dL | MCV [1]: 52.1 ± 5.0 fL | PLT [1]: 459.0 ± 99.1 103/μL | RBC-H [1]: 9.3 ± 0.3 106/μL | WBC-H [1]: 6.5 ± 0.6 103/μL | ALP, plasma [1]: 78.0 ± 3.8 U/L | ALT, plasma [1]: 34.3 ± 1.9 U/L | AST, plasma [1]: 61.7 ± 6.4 U/L | BUN, plasma [1]: 22.0 ± 0.6 mg/dL | CREAT (creatinine), plasma [1]: 0.2 ± 0.0 mg/dL | GLU (glucose), plasma [1]: 291.7 ± 6.5 mg/dL | ALP, plasma [2]: 68.0 ± 3.8 U/L | ALT, plasma [2]: 34.5 ± 1.9 U/L | AST, plasma [2]: 67.8 ± 7.1 U/L | BUN, plasma [2]: 17.5 ± 0.4 mg/dL | CREAT (creatinine), plasma [2]: < 0.2 ± 0.0 mg/dL | GLU (glucose), plasma [2]: 259.0 ± 5.7 mg/dL | ALP, plasma [3]: 86.8 ± 13.4 U/L | ALT, plasma [3]: 30.3 ± 3.4 U/L | AST, plasma [3]: 81.3 ± 17.8 U/L | BUN, plasma [3]: 18.5 ± 2.1 mg/dL | CREAT (creatinine), plasma [3]: 0.2 ± 0.0 mg/dL | GLU (glucose), plasma [3]: 235.3 ± 19.4 mg/dL | plasma ALT level versus control (female, all three treatment groups, 90 days): significantly lower | BUN level versus control (male 10 mg/kg, female 40 mg/kg and female 80 mg/kg groups, 90 days): significantly lower | MCV versus control (male 40 mg/kg group, 90 days): significantly higher | ALP and plasma glucose levels [4]: no significant changes | CREAT levels [4]: no significant change | WBC-H, RBC-H, HGB, HCT, MCHC, PLT versus control (male up to 80 mg/kg, female 10 mg/kg, 90 days): did not show any significant changes | HCT [5]: 41.0 ± 3.0% | HGB [5]: 11.8 ± 0.4 g/dL | MCHC [5]: 28.8 ± 2.5 g/dL | MCV [5]: 49.6 ± 2.5 fL | PLT [5]: 555.0 ± 147.7 103/μL | RBC-H [5]: 8.3 ± 0.6 106/μL | WBC-H [5]: 4.5 ± 1.0 103/μL | ALP, plasma [5]: 71.8 ± 4.7 U/L | ALT, plasma [5]: 28.3 ± 1.7 U/L | AST, plasma [5]: 57.8 ± 12.8 U/L | BUN, plasma [5]: 18.3 ± 0.7 mg/dL | CREAT (creatinine), plasma [5]: 0.2 ± 0.0 mg/dL | GLU (glucose), plasma [5]: 263.8 ± 9.9 mg/dL | HCT [6]: 47.4 ± 4.3% | HGB [6]: 11.9 ± 0.9 g/dL | MCHC [6]: 25.1 ± 3.3 g/dL | MCV [6]: 55.4 ± 4.8 fL | PLT [6]: 413.0 ± 111.2 103/μL | RBC-H [6]: 8.6 ± 0.8 106/μL | WBC-H [6]: 5.0 ± 1.8 103/μL | ALP, plasma [6]: 78.3 ± 5.2 U/L | ALT, plasma [6]: 28.5 ± 2.5 U/L | AST, plasma [6]: 42.8 ± 1.9 U/L | BUN, plasma [6]: 20.5 ± 0.8 mg/dL | CREAT (creatinine), plasma [6]: 0.2 ± 0.0 mg/dL | GLU (glucose), plasma [6]: 248.5 ± 12.0 mg/dL | HCT [7]: 47.8 ± 4.9% | HGB [7]: 12.5 ± 0.3 g/dL | MCHC [7]: 26.3 ± 2.2 g/dL | MCV [7]: 53.3 ± 5.1 fL | PLT [7]: 580.3 ± 119.8 103/μL | RBC-H [7]: 9.0 ± 0.1 106/μL | WBC-H [7]: 7.9 ± 1.4 103/μL | ALP, plasma [7]: 63.0 ± 3.4 U/L | ALT, plasma [7]: 48.0 ± 4.8 U/L | AST, plasma [7]: 48.5 ± 4.50 U/L | BUN, plasma [7]: 20.3 ± 0.2 mg/dL | CREAT (creatinine), plasma [7]: 0.2 ± 0.0 mg/dL | GLU (glucose), plasma [7]: 272.3 ± 15.4 mg/dL | ALT level versus control (treated males, 90 days): did not show a significant change
